The values that follow come from patent US11708562B2, “Differentiation of human embryonic stem cells” (Janssen Biotech, Inc., priority 2006, dated 2023).

In assay [1] the test system is human embryonic stem cell line H7. In words: FACS protein expression with time following activin A treatment (Table IIB). To be noted: AA 100 ng/ml. Format: cell-based. As for the experimental part: (§1) The level of expression of definitive endoderm markers was examined by PCR (FIGS. 1A and 1B), FACS (results summarized in Table I), and immunohistochemistry (FIGS. 2A, 2B and 2C).
Adhered cells were removed from culture plates by five-minute incubation with TrypLE™ Express solution (Invitrogen, CA). Released cells were resuspended in human embryonic stem cell culture medium and recovered by centrifugation, followed by washing and resuspending the cells in a staining buffer consisting of 2% BSA, 0.05% sodium azide in PBS (Sigma, MO). As appropriate, the cells were Fc-receptor blocked for 15 minutes using a 0.1% γ-globulin (Sigma) solution. […] Controls included appropriate isotype matched antibodies, unstained cells, and cells stained only with secondary conjugated antibody. All incubations with antibodies were performed for 30 mins at 4° C. after which the cells were washed with the staining buffer. Samples that were stained with unconjugated primary antibodies were incubated for an additional 30 mins at 4° C. with secondary conjugated PE or -APC labeled antibodies. See Table I for a list of secondary antibodies used. Washed cells were pelleted and resuspended in the staining buffer, and the cell surface molecules were identified using a FACS Array (BD Biosciences) instrument, collecting at least 10,000 events.

The subject of assay [2] is human embryonic stem cell line H9. In words: PCR of definitive endoderm and other lineage markers after activin A, cells on mouse embryonic fibroblasts. To be noted: 100 ng/ml activin A. Type of assay: cell-based.
Source text: as §1
Cells were harvested at the time points indicated in FIGS. 3A, 3B, 3C and 3D and assayed by PCR for the expression of genes shown (FIGS. 3A, 3B, 3C, 3D, 4A, 4B, 5A and 5B).
RNA samples were purified by binding to a silica-gel membrane (Rneasy Mini Kit, Qiagen, CA) in the presence of an ethanol-containing, high-salt buffer followed by washing to remove contaminants. The RNA was further purified using a TURBO DNA-free kit (Ambion, INC), and high-quality RNA was then eluted in water. Yield and purity were assessed by A260 and A280 readings on a spectrophotometer. cDNA copies were made from purified RNA using an ABI (ABI, CA) high capacity cDNA archive kit.
Final data were expressed relative to a calibrator sample.

Assay [3] shares this test system. Briefly: Formation of pancreatic endocrine cells expressing Nkx2.2 (PCR). Format: cell-based. The note with it: activin A for the first three days of culture. As for the experimental part:
Cells were continuously cultured for another 3 to 5 days in basal medium with retinoic acid at 1 μM, alone or with bFGF. RNA samples were harvested from cells at various time points along this process to help evaluate the directed differentiation of the cells. Furthermore, culture medium and factors were regularly removed and replenished throughout the differentiation protocol.

Assay [4] has as its system H9P49 and H1P46 embryonic stem cells. In words: Definitive endoderm on MATRIGEL: effective dose of activin A with GSK-3B inhibitor or Wnt-3A. Format: cell-based, human. The source says:
FIGS. 31A, 31B, 31C and 31D is for H9P49 cells and FIGS. 31E and 31F is for H1P46 cells.

Assay [5] relates to H9 cultures. Briefly: Definitive endoderm on varying concentrations of […] with Wnt-3a (real-time PCR). Format: cell-based, human. To be noted: low serum, 100 ng/ml activin A and 20 ng/ml Wnt-3a. As for the experimental part:
H9 cells were cultured on plates coated with regular […] at a 1:60 to 1:10 dilution. The plates were coated with […] for 1 hr at room temperature.
On the technique in general: Real-time PCR tracks product formation cycle by cycle.

Consider “Activin A: a member of the TGFβ superfamily; growth factor (R&D Systems) used to differentiate human embryonic stem cells”, for which, in assay [1] (1-day), the “CXCR4+ C-Kit+ cells (FACS)” value worked out at 2.97%, the “CXCR4+ CD9+ cells (FACS)” value is 8.13%, the “CXCR4+ EPCAM+ cells (FACS)” value amounted to 14.58% and the “CXCR4+ cells (FACS)” value worked out at 6%. Further, in assay [1] (3-day), the “CXCR4+ C-Kit+ cells (FACS)” value is listed as 31.56%, the “CXCR4+ CD9+ cells (FACS)” value turned out to be 24.11%, the “CXCR4+ EPCAM+ cells (FACS)” value was 36.67% and the “CXCR4+ cells (FACS)” value was found to be 38%. Further, in assay [1] (5-day), the “CXCR4+ C-Kit+ cells (FACS)” value was found to be 55.21%, the “CXCR4+ CD9+ cells (FACS)” value is 2.1%, the “CXCR4+ EPCAM+ cells (FACS)” value is reported as 54.5% and the “CXCR4+ cells (FACS)” value is 65.5%. The “anterior endoderm markers Cerberus, Otx-1 and Hex genes” value in assay [2] is on record as “significant up regulation”. Besides, in assay [2] (up to seven days), the “expression of extraembryonic endoderm markers Sox7 and AFP” value is given as “time-dependent decrease”. In addition, the “Pdx1 expression compared to samples containing no activin A” value in assay [3] was “maintained Pdx1 expression”. Further, the “lineage formed at lower doses of activin A” value in assay [4] was “formation of extraembryonic endoderm”. For the same substance, in assay [5], the “expression of CXCR4, GATA4, Goosecoid, HNF-3beta, and SOX-17 genes” value is on record as “led to the expression”.
